Assay results from ChEMBL document CHEMBL1201862, “PubChem BioAssay data set” (2004).
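Step 1: Grow cells in 96-well plates. Step 2: Expose to compound for 48 hours at 5 concentrations. Step 3: Interpolate endpoints linearly; if unreached, use highest concentration. Here, GI50 denotes the concentration required for 50% inhibition of growth.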 Activity calls are given as the source filed them. Rule as the data show it: active = GI50 up to about 1.1 µM and inactive = higher.

What was measured:
Assay in all cases: NCI anticancer screen, dose series, 48 h
786-0 = test system: 786-0
A498 = test system: A498
A549 = test system: A549
ACHN = test system: ACHN
BT-549 = test system: BT-549
CAKI-1 = test system: CAKI-1
CCRF-CEM = test system: CCRF-CEM
COLO 205 = test system: COLO 205
DU-145 = test system: DU-145
EKVX = test system: EKVX
HCC 2998 = test system: HCC 2998
HCT-116 = test system: HCT-116
HCT-15 = test system: HCT-15
HL-60 = test system: HL-60
HOP-62 = test system: HOP-62
HOP-92 = test system: HOP-92
HT-29 = test system: HT-29
Hs-578T = test system: Hs-578T
IGROV-1 = test system: IGROV-1
K562 = test system: K562
KM12 = test system: KM12
LOX IMVI = test system: LOX IMVI
M14 = test system: M14
MCF7 = test system: MCF7
MDA-MB-231 = test system: MDA-MB-231
MDA-MB-435 = test system: MDA-MB-435
MOLT-4 = test system: MOLT-4
NCI-H226 = test system: NCI-H226
NCI-H23 = test system: NCI-H23
NCI-H460 = test system: NCI-H460
NCI-H522 = test system: NCI-H522
NCI/ADR-RES = test system: NCI/ADR-RES
OVCAR-3 = test system: OVCAR-3
OVCAR-4 = test system: OVCAR-4
OVCAR-5 = test system: OVCAR-5
OVCAR-8 = test system: OVCAR-8
PC-3 = test system: PC-3
RPMI-8226 = test system: RPMI-8226
RXF 393 = test system: RXF 393
SF-268 = test system: SF-268
SF-295 = test system: SF-295
SF-539 = test system: SF-539
SK-MEL-28 = test system: SK-MEL-28
SK-MEL-2 = test system: SK-MEL-2
SK-MEL-5 = test system: SK-MEL-5
SK-OV-3 = test system: SK-OV-3
SN12C = test system: SN12C
SNB-19 = test system: SNB-19
SNB-75 = test system: SNB-75
SR = test system: SR
SW-620 = test system: SW-620
T47D = test system: T47D
TK-10 = test system: TK-10
U-251 = test system: U-251
UACC-257 = test system: UACC-257
UACC-62 = test system: UACC-62
UO-31 = test system: UO-31
MDA-N = test system: MDA-N
Malme-3M = test system: Malme-3M

Measured: GI50

COCc1nc(N)nc(N2N=C(C)CC2(C)C)n1
> 100 µM: HCT-15
inactive: 786-0 > 100 µM | A498 > 100 µM | A549 > 100 µM | ACHN > 100 µM | BT-549 > 100 µM | CAKI-1 > 100 µM | CCRF-CEM > 100 µM | COLO 205 > 100 µM | DU-145 > 100 µM | EKVX > 100 µM | HCC 2998 > 100 µM | HCT-116 > 100 µM | HL-60 > 100 µM | HOP-62 > 100 µM | HOP-92 > 100 µM | HT-29 > 100 µM | Hs-578T > 100 µM | IGROV-1 > 100 µM | K562 > 100 µM | KM12 > 100 µM | LOX IMVI > 100 µM | M14 > 100 µM | MCF7 > 100 µM | MDA-MB-231 > 100 µM | MDA-MB-435 > 100 µM | MOLT-4 > 100 µM | NCI-H226 > 100 µM | NCI-H23 > 100 µM | NCI-H460 > 100 µM | NCI-H522 > 100 µM | NCI/ADR-RES > 100 µM | OVCAR-3 > 100 µM | OVCAR-4 > 100 µM | OVCAR-5 > 100 µM | OVCAR-8 > 100 µM | PC-3 > 100 µM | RPMI-8226 > 100 µM | RXF 393 > 100 µM | SF-268 > 100 µM | SF-295 > 100 µM | SF-539 > 100 µM | SK-MEL-28 > 100 µM | SK-MEL-2 > 100 µM | SK-MEL-5 > 100 µM | SK-OV-3 > 100 µM | SN12C > 100 µM | SNB-19 > 100 µM | SNB-75 > 100 µM | SR > 100 µM | SW-620 > 100 µM | T47D > 100 µM | TK-10 > 100 µM | U-251 > 100 µM | UACC-257 > 100 µM | UACC-62 > 100 µM | UO-31 > 100 µM

CCCCCCCN1C(=O)C(O)(c2ccc(C3(O)C(=O)N(CCCCCCC)c4ccccc43)s2)c2ccccc21 (stereo not drawn)
active: SK-OV-3 0.753 µM
inactive: 786-0 1.91 µM | ACHN 2.26 µM | BT-549 2.33 µM | CCRF-CEM 3.87 µM | COLO 205 1.63 µM | DU-145 1.65 µM | HCC 2998 1.87 µM | HCT-116 1.73 µM | HL-60 1.56 µM | HOP-62 1.77 µM | HOP-92 1.84 µM | HT-29 1.78 µM | Hs-578T 2.79 µM | IGROV-1 2.35 µM | K562 2.99 µM | KM12 1.8 µM | LOX IMVI 1.96 µM | M14 1.79 µM | MCF7 2.21 µM | MDA-MB-231 2.19 µM | MDA-MB-435 2.05 µM | MDA-N 1.99 µM | MOLT-4 2.03 µM | NCI-H460 1.79 µM | OVCAR-4 2.01 µM | OVCAR-5 1.68 µM | OVCAR-8 2.04 µM | PC-3 1.97 µM | RPMI-8226 2.04 µM | SF-268 2.11 µM | SF-295 1.85 µM | SF-539 1.79 µM | SK-MEL-28 2.07 µM | SK-MEL-2 1.47 µM | SK-MEL-5 1.79 µM | SN12C 1.9 µM | SNB-19 2.81 µM | SNB-75 5.4 µM | SR 4.83 µM | SW-620 2.18 µM | T47D 4.39 µM | TK-10 2.25 µM | U-251 1.74 µM | UACC-257 2.07 µM | UACC-62 2.12 µM | UO-31 1.57 µM
2.12 µM: HCT-15

CS(=O)(=O)CC(=O)c1ccccc1
> 100 µM: HCT-15
inactive: 786-0 > 100 µM | A498 > 100 µM | A549 > 100 µM | ACHN > 100 µM | BT-549 > 100 µM | CCRF-CEM > 100 µM | COLO 205 > 100 µM | DU-145 > 100 µM | EKVX > 100 µM | HCC 2998 > 100 µM | HCT-116 > 100 µM | HL-60 > 100 µM | HOP-62 > 100 µM | HT-29 > 100 µM | Hs-578T > 100 µM | IGROV-1 > 100 µM | K562 > 100 µM | KM12 > 100 µM | LOX IMVI > 100 µM | M14 > 100 µM | MCF7 > 100 µM | MDA-MB-435 > 100 µM | MDA-N > 100 µM | MOLT-4 > 100 µM | Malme-3M > 100 µM | NCI-H226 > 100 µM | NCI-H23 > 100 µM | NCI-H460 > 100 µM | NCI-H522 > 100 µM | NCI/ADR-RES > 100 µM | OVCAR-3 > 100 µM | OVCAR-4 > 100 µM | OVCAR-5 > 100 µM | OVCAR-8 > 100 µM | PC-3 > 100 µM | RPMI-8226 > 100 µM | RXF 393 > 100 µM | SF-268 > 100 µM | SF-295 > 100 µM | SF-539 > 100 µM | SK-MEL-28 > 100 µM | SK-MEL-2 > 100 µM | SK-MEL-5 > 100 µM | SK-OV-3 > 100 µM | SN12C > 100 µM | SNB-19 > 100 µM | SNB-75 38.8 µM | SR > 100 µM | SW-620 > 100 µM | T47D > 100 µM | TK-10 > 100 µM | U-251 > 100 µM | UACC-257 > 100 µM | UACC-62 > 100 µM | UO-31 > 100 µM

CCOC(=O)CCC(NC(=O)c1ccc(CNc2nc3cc(N)cc(N)c3nc2-c2ccccc2)cc1)C(=O)OCC (stereo not drawn)
> 69.5 µM: HCT-15
inactive: 786-0 > 100 µM | A498 > 100 µM | A549 > 100 µM | ACHN > 100 µM | BT-549 > 100 µM | CAKI-1 > 100 µM | COLO 205 27.5 µM | DU-145 > 89.3 µM | EKVX > 100 µM | HCC 2998 > 100 µM | HCT-116 > 95.9 µM | HL-60 10.7 µM | HOP-62 > 100 µM | HOP-92 39.9 µM | HT-29 > 100 µM | Hs-578T > 84.5 µM | IGROV-1 > 87.1 µM | K562 15.3 µM | KM12 > 85.7 µM | LOX IMVI 99.3 µM | M14 28.4 µM | MCF7 > 87.3 µM | MDA-MB-231 22.3 µM | MDA-MB-435 43.1 µM | MOLT-4 1.45 µM | Malme-3M 18.3 µM | NCI-H226 > 100 µM | NCI-H23 > 67.6 µM | NCI-H460 34 µM | NCI-H522 28.4 µM | NCI/ADR-RES > 100 µM | OVCAR-3 27 µM | OVCAR-4 17.4 µM | OVCAR-5 > 100 µM | OVCAR-8 > 100 µM | PC-3 > 100 µM | RXF 393 > 58.9 µM | SF-268 > 100 µM | SF-295 > 100 µM | SF-539 > 100 µM | SK-MEL-28 28.2 µM | SK-MEL-2 28.8 µM | SK-MEL-5 > 83 µM | SK-OV-3 > 100 µM | SN12C > 61.5 µM | SNB-19 > 100 µM | SNB-75 > 100 µM | SR 3.64 µM | SW-620 > 100 µM | T47D 20.7 µM | TK-10 > 100 µM | U-251 > 100 µM | UACC-257 19 µM | UACC-62 > 86.3 µM | UO-31 > 100 µM

COC1OC(CS(=O)(=O)O)C(O)C(O)C1O (stereo not drawn)
> 100 µM: HCT-15
inactive: A498 > 100 µM | BT-549 > 100 µM | CAKI-1 > 100 µM | CCRF-CEM > 100 µM | COLO 205 > 100 µM | DU-145 > 100 µM | HCC 2998 > 100 µM | HCT-116 > 100 µM | HL-60 > 100 µM | HOP-62 > 100 µM | HOP-92 > 100 µM | HT-29 > 100 µM | Hs-578T > 100 µM | IGROV-1 > 100 µM | K562 > 100 µM | KM12 > 100 µM | LOX IMVI > 100 µM | M14 > 100 µM | MCF7 > 100 µM | MDA-MB-435 > 100 µM | MDA-N > 100 µM | MOLT-4 > 100 µM | Malme-3M > 100 µM | NCI-H226 > 100 µM | NCI-H23 > 100 µM | NCI-H460 > 100 µM | NCI/ADR-RES > 100 µM | OVCAR-3 > 100 µM | OVCAR-4 > 100 µM | OVCAR-5 > 100 µM | OVCAR-8 > 100 µM | PC-3 > 100 µM | RPMI-8226 > 100 µM | RXF 393 > 100 µM | SF-295 > 100 µM | SK-MEL-28 > 100 µM | SK-MEL-2 > 100 µM | SK-MEL-5 > 100 µM | SK-OV-3 > 100 µM | SN12C > 100 µM | SNB-19 > 100 µM | SNB-75 > 100 µM | SR > 100 µM | SW-620 > 100 µM | T47D > 100 µM | TK-10 > 100 µM | U-251 > 100 µM | UACC-257 > 100 µM | UACC-62 > 100 µM | UO-31 > 100 µM
